Publication PMC12254266, “Multicolored sequential resonance energy transfer for detection of simultaneous ligand binding at G protein-coupled receptors” (Nature Communications, 2025)
Several values for one entry are separate records, joined by “and”; a condition that tells them apart may be missing. Equal values may be shown once. Each block holds one compound with its values, some of them ahead of it.

Experiments:
[1] = molecular target: T1, Nluc-FFA1 (Homo sapiens, UniProt O14842); assay: NanoBRET binding (saturation, competition, kinetics) at N terminal Nluc tagged FFA1; conditions: footnotes of Supplementary Table 3; read-out: Kd values obtained in NanoBRET saturation experiments (used for pKi) (converted)
T1 construct: expressed in transfected cells
Method: (§1) Nluc-FFA1 or FFA1-Nluc Flp-In T-REx 293 cells were plated at 50,000 cells per well in poly-D-lysine coated white 96-well plates. Cells were cultured for 24 h in the plate before medium was replaced with medium containing 100 ng/mL of doxycycline to induce receptor expression. After culturing for a further 24 h, medium was removed, cells were washed with HBSS and incubated in HBSS for 30 min. To start the assay, NanoGlo substrate (Promega, N1110) was added to the cells at a 1:800 final dilution and incubated for 10 min at 37 °C. For endpoint assays, including both saturation and competition binding, test ligands were then added, including both fluorescent and unlabelled competing ligands as indicated, and plates incubated for a further 5 min at 37 °C. NanoBRET was then quantified in a CLARIOstar microplate reader (BMG Labtech) by measuring luminescent emission with the monochrometer set for the Nluc donor at 450–60 nm, and acceptor luminescent emission 540–60 nm (NBD), 600–80 nm (Cy3.5) or 690–100 nm (SulfoCy5), depending on which fluorophore was being tested. The acceptor/donor BRET ratio was then taken as a measure of fluorophore binding. For kinetic on then off NanoBRET experiments plates were washed the same way and substrate was added to the same concentration. However, 10 min after substrate was added plates were inserted into the CLARIOstar microplate reader set to 25 °C to take repeated measurements of luminescent emission for both the donor and the acceptor fluorophore being used. After 5 min of background measurements, the indicated concentration of fluorescent ligand was added using the plate reader injector and luminescent emission was monitored for ~10 min before the reader was paused to manually add a high concentration of appropriate competing ligand to initiate dissociation. The plate was returned to the reader and luminescence measurements were continued for a further 30 min to monitor dissociation of the fluorescent ligand. For kinetic experiments using multiple concentrations of fluorescent ligand, cells were placed in the plate reader immediately after the addition of Nano-Glo substrate and luminescent measurements were taken. After 5 min, the reader was paused to add the indicated concentrations of fluorescent ligand, before measurements were continued. To set non-specific binding for kinetic experiments, the indicated competing ligand was added 5 min before the addition of the fluorescent ligand.

[2] = molecular target: T2, FFA1-Nluc (Homo sapiens, UniProt O14842); assay: NanoBRET binding (saturation, kinetics) at C terminal Nluc tagged FFA1; parameters: expressed in transfected cells; conditions: Sup Fig 7B
Method: as §1

[3] = molecular target: T2, FFA1-Nluc; assay: DISCo-BRET (endpoint, spectra scan, kinetics) with TUG-2591 and TUG-2597 at C terminal Nluc tagged FFA1; type: binding; parameters: expressed in transfected cells; conditions: for Specific BRET (690/540), % of control: Figure 4Aiii; for Specific BRET (690/540), % of control / Specific BRET (540/450), % of control: single replicate values (technical duplicate); for Specific BRET (540/450), % of control: Figure 4Biii
Outline: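 Flp-In T-REx 293 cells expressing Nluc-tagged FFA1 were induced with 100 ng/mL doxycycline for 24 h, then given Nano-Glo (1:800 final). Endpoint and spectral reads were taken 5 min after ligand at 37 °C; kinetics were read at 25 °C with sequential ligand additions. BRET ratios were taken from Nluc, NBD and SulfoCy5 emissions.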

[4] = molecular target: T2, FFA1-Nluc; assay: Ca2+ mobilisation antagonism of FFA1 agonists (TUG-905, T360) in Flp-In T-REx 293 cells expressing FFA1-Nluc; type: cell-based; parameters: expressed in transfected cells
Method: Nluc-FFA1, FFA1-Nluc or untagged FFA1 Flp-In T-REx 293 cells were plated at 50,000 cells per well in poly-D-lysine coated black clear bottom 96-well plates. Cells were then cultured for 24 h until reaching confluency before culture medium was replaced with medium containing 100 ng/mL of doxycycline to induce receptor expression. Cells were cultured for a further 24 h before the assay. On the day of the assay culture medium was removed and replaced with medium containing 3 μM Fura2-AM Ca^2+ dye. […] Fura2 fluorescent emission at 520 nm following excitation with each of 340 and 380 nm was measured in regular intervals both before and after adding test compounds for a total of 90 s per well. Calcium responses were determined by taking the peak 340/380 ratio after first subtracting the ratios obtained prior to addition of test compound. […]
Ca2+ mobilization responses were measured in
Flp-In T-REx 293 cells expressing FFA1-Nluc. Ca2+ responses to increasing concentrations
pre-treated with 10 μM PPTQ. The mode of antagonism for PPTQ was assessed by
N=3 (A-D, F, H) or N=4 (E, G) independent experiments. S ource data are provided as a […]

T2 sequence (O14842 whole entry): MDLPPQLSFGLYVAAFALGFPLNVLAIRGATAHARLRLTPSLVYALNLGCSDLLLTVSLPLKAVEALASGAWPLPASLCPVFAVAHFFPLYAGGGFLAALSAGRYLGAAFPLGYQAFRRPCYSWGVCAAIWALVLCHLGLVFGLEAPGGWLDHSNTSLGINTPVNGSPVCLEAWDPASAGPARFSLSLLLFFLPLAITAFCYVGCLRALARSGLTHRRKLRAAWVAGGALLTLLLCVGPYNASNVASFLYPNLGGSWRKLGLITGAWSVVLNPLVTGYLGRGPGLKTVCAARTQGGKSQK
T1 sequence (O14842 whole entry): as above

Kd [1]: 940 nM
Specific BRET (%) ([2]; [TUG-2884] 4 μM, technical duplicates): 96.6176% and 103.382%
Structure (SMILES): CCCN1C(=O)c2ccccc2[C@@H](C(=O)O)[C@@H]1c1ccc(OCc2cccc(-c3ccc(OCCOCCNc4ccc([N+](=O)[O-])c5nonc45)cc3C)c2)cc1 [TUG-2884]
Specific BRET (%) ([2]; [TUG-2884] 1 μM): 60.2367% and 75.4193% and 48.9635% and 51.5087% and 65.0111% and 65.7411%
Specific BRET (%) ([2]; [TUG-2884] 2 μM): 98.0293% and 80.378% and 57.5363% and 68.9417% and 80.7303% and 88.1476%

pIC50 DISCo-BRET SulfoCy5/NBD ([3]; 100 nM TUG-2591 and […] TUG-2597, one site model, NC = No competition): 6.0±0.06
'bottom' of the IC50 curve, DISCo-BRET SulfoCy5/NBD ([3]; percentage of binding obtained in the absence of competing ligand, 100 nM TUG-2591 and […] TUG-2597): -15%
pKi DISCo-BRET SulfoCy5/NBD ([3]; using Kd TUG-2591 57 nM): 6.4±0.06
antagonism of site one agonist (TUG-905) Ca2+ response ([4]; in words): inhibits signalling from site one
Structure (SMILES): CCCN1C(=O)c2ccccc2[C@@H](C(=O)O)[C@@H]1c1ccc(OCc2cccc(-c3ccc(OCCCS(C)(=O)=O)cc3C)c2)cc1 (racemic) [TUG-2745]
Specific BRET (690/540), % of control ([3]; log[Ligand] -5): 0.92 % of control and 2.39 % of control and -9.90 % of control and -8.10 % of control and -2.12 % of control and -2.60 % of control and -5.52 % of control and -2.17 % of control
Specific BRET (540/450), % of control ([3]; log[Ligand] -5): 155.62 % of control and 107.52 % of control and 117.08 % of control and 99.92 % of control and 108.86 % of control and 92.88 % of control and 108.34 % of control
Specific BRET (690/540), % of control ([3]; log[Ligand] -5.5): 19.71 % of control and 24.68 % of control and 5.40 % of control and 1.46 % of control and 18.78 % of control and 3.37 % of control and 12.72 % of control and 3.96 % of control
Specific BRET (540/450), % of control ([3]; log[Ligand] -5.5): 128.42 % of control and 65.71 % of control and 109.72 % of control and 87.17 % of control and 104.75 % of control and 74.68 % of control and 117.49 % of control
Specific BRET (690/540), % of control ([3]; log[Ligand] -6): 43.09 % of control and 64.83 % of control and 36.45 % of control and 38.47 % of control and 45.84 % of control and 53.64 % of control and 35.79 % of control and 29.99 % of control
Specific BRET (540/450), % of control ([3]; log[Ligand] -6): 103.22 % of control and 89.76 % of control and 90.60 % of control and 69.85 % of control and 83.23 % of control and 146.81 % of control
Specific BRET (690/540), % of control ([3]; log[Ligand] -6.5): 78.64 % of control and 74.49 % of control and 82.00 % of control and 53.43 % of control and 70.00 % of control and 66.92 % of control and 69.40 % of control and 69.25 % of control
Specific BRET (540/450), % of control ([3]; log[Ligand] -6.5): 86.61 % of control and 51.40 % of control and 85.70 % of control and 71.65 % of control and 68.99 % of control
Specific BRET (690/540), % of control ([3]; log[Ligand] -7): 89.69 % of control and 92.82 % of control and 101.91 % of control and 88.41 % of control and 100.24 % of control and 95.91 % of control and 89.88 % of control and 95.21 % of control
Specific BRET (540/450), % of control ([3]; log[Ligand] -7): 100.64 % of control and 40.23 % of control and 87.50 % of control and 76.88 % of control and 80.22 % of control and 64.08 % of control and 139.58 % of control
Specific BRET (690/540), % of control ([3]; log[Ligand] -8): 95.21 % of control and 98.62 % of control and 92.91 % of control and 107.54 % of control and 94.56 % of control and 87.72 % of control and 98.50 % of control and 104.07 % of control
Specific BRET (540/450), % of control ([3]; log[Ligand] -8): 82.89 % of control and 76.59 % of control and 92.89 % of control and 70.83 % of control and 83.23 % of control and 65.66 % of control and 122.27 % of control
Specific BRET (690/540), % of control ([3]; log[Ligand] -9): 101.38 % of control and 98.62 % of control and 102.14 % of control and 95.05 % of control and 103.71 % of control and 93.98 % of control
Specific BRET (540/450), % of control ([3]; log[Ligand] -9): 57.41 % of control and 46.53 % of control and 87.83 % of control and 70.67 % of control and 68.35 % of control and 75.16 % of control and 107.46 % of control
Ca2% Response (%) ([4]; response to log[T360] -5 in presence of TUG-2745, Sup Fig 6H): 90.24% and 94.14% and 97.83% and 85.85% and 108.28% and 87.68%
Ca2% Response (%) ([4]; response to log[T360] -6 in presence of TUG-2745, Sup Fig 6H): 106.53% and 104.17% and 101.28% and 97.48% and 114.91% and 110.38%
Ca2% Response (%) ([4]; response to log[T360] -8 in presence of TUG-2745, Sup Fig 6H): 5.16% and 2.24% and -0.89% and 3.26% and 3.57% and -0.49%
Ca2% Response (%) ([4]; response to log[T360] -9 in presence of TUG-2745, Sup Fig 6H): -1.82% and 2.64% and 1.16% and 1.84% and 0.35% and 1.32%
Ca2% Response (%) ([4]; response to log[T360] -10 in presence of TUG-2745, Sup Fig 6H): -0.06% and 1.71% and 3.56% and 4.07% and 1.54% and 0.19%
Ca2% Response (%) ([4]; response to log[T360] -11 in presence of TUG-2745, Sup Fig 6H): 2.74% and 2.14% and 3.49% and 1.57% and 6.13% and -0.07%
Ca2% Response (%) ([4]; response to log[TUG-905] -5 in presence of TUG-2745, Sup Fig 6G): 59.62% and 66.91% and 76.48% and 82.73% and 94.09% and 86.41%
